# Data from patent US20220323406A1, “METHODS AND COMPOSITIONS FOR DIFFERENTIATING STEM CELLS” (Massachusetts Institute of Technology, priority 2019, published 2022).
# How the values were obtained:
# ENR+CD organoids = assay: Primary screen: ATP (CellTiter-Glo 3D, CTG) cell number/viability, 2.5-D 384-well ENR+CD organoids;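 further: compounds given at plating and again on day 3 over a 6-day differentiation from ENR+CV stem-cell-enriched precursors, ATP measured on day 6, plate median as control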
# [1] = tested on: ENR+CD organoids (ISC to Paneth cell differentiation); assay: Primary screen: CCh-stimulated lysozyme secretion LYZ.S, 2.5-D 384-well ENR+CD organoid differentiation; type: cell-based, mouse; conditions: primary screen
# Text: (§1) High-throughput screening.
# [2] = tested on: ENR+CD organoids (ISC to Paneth cell differentiation); assay: Primary screen: basal (non-stimulated) lysozyme secretion LYZ.NS, 2.5-D 384-well ENR+CD organoid differentiation; type: cell-based, mouse
# Text: as §1
# [3] = primary screen, dose 0.08 uM, standard z score
# [4] = primary screen, dose 0.40 uM, standard z score
# [5] = primary screen, dose 2.00 uM, standard z score
# [6] = primary screen, dose 10.00 uM, standard z score
# [7] = primary screen; dose 0.08 uM; FC vs plate median
# [8] = primary screen; dose 0.40 uM; FC vs plate median
# [9] = primary screen; dose 2.00 uM; FC vs plate median
# [10] = primary screen; dose 10.00 uM; FC vs plate median
# [11] = dose 0.08 uM, FC vs plate median
# [12] = dose 0.40 uM, FC vs plate median
# [13] = dose 2.00 uM, FC vs plate median
# [14] = dose 10.00 uM, FC vs plate median
# [15] = primary screen, standard z score, dose 0.08 uM
# [16] = primary screen, standard z score, dose 0.40 uM
# [17] = primary screen, standard z score, dose 2.00 uM
# [18] = primary screen, standard z score, dose 10.00 uM
Structure (SMILES),Z.CTG (ENR+CD organoids; [3]),Z.CTG (ENR+CD organoids; [4]),Z.CTG (ENR+CD organoids; [5]),Z.CTG (ENR+CD organoids; [6]),Dose.FC.CTG (ENR+CD organoids; [7]),Dose.FC.CTG (ENR+CD organoids; [8]),Dose.FC.CTG (ENR+CD organoids; [9]),Dose.FC.CTG (ENR+CD organoids; [10]),"Dose.FC.CTG (ENR+CD organoids; primary screen, dose 0.08 uM)","Dose.FC.CTG (ENR+CD organoids; primary screen, dose 0.40 uM)","Dose.FC.CTG (ENR+CD organoids; primary screen, dose 2.00 uM)","Dose.FC.CTG (ENR+CD organoids; primary screen, dose 10.00 uM)",Dose.FC.LYZ.S ([1]; dose 0.08 uM),Dose.FC.LYZ.S ([1]; dose 0.40 uM),Dose.FC.LYZ.S ([1]; dose 2.00 uM),Dose.FC.LYZ.S ([1]; dose 10.00 uM),"Dose.FC.LYZ.NS ([2]; primary screen, dose 0.08 uM)","Dose.FC.LYZ.NS ([2]; primary screen, dose 0.40 uM)","Dose.FC.LYZ.NS ([2]; primary screen, dose 2.00 uM)","Dose.FC.LYZ.NS ([2]; primary screen, dose 10.00 uM)",other results
CC[C@@H]1/C=C/C=C/C[C@H](C)[C@H](O)[C@](C)(O)C(=O)[C@H](C)[C@@H](O)[C@H](C)C(=O)[C@H](C)[C@@H](O)[C@H](C)/C=C/C(=O)O[C@H]2[C@@H](C)[C@@H](CC1)O[C@@]1(CC[C@@H](C)[C@@H](C[C@H](C)O)O1)[C@@H]2C [Oligomycin A],−1.581,−1.685,−2.261,−2.972,−0.662 log2 fold change,−0.706 log2 fold change,−0.946 log2 fold change,−1.244 log2 fold change,,,,,,,,,,,,,"Dose.FC.LYZ.S [1, 11]: −0.243 log2 fold change; Dose.FC.LYZ.S [1, 12]: −0.274 log2 fold change; Dose.FC.LYZ.S [1, 13]: −0.269 log2 fold change; Dose.FC.LYZ.S [1, 14]: −0.288 log2 fold change; Z.LYZ.NS [2, 3]: −1.778; Z.LYZ.NS [2, 4]: −2.013; Z.LYZ.NS [2, 5]: −1.857; Z.LYZ.NS [2, 6]: −1.943; Dose.FC.LYZ.NS [2, 7]: −0.204 log2 fold change; Dose.FC.LYZ.NS [2, 8]: −0.231 log2 fold change; Dose.FC.LYZ.NS [2, 9]: −0.213 log2 fold change; Dose.FC.LYZ.NS [2, 10]: −0.223 log2 fold change"
C1=N/C2=N/c3ccc(OCCN4CCCC4)c(c3)COC/C=C/COCc3cccc(c3)C(=C1)N2 [Pacritinib (SB1518)],−0.014,0.236,−0.560,−3.047,−0.006 log2 fold change,0.099 log2 fold change,−0.235 log2 fold change,−1.276 log2 fold change,,,,,,,,,,,,,"Dose.FC.LYZ.S [1, 11]: 0.066 log2 fold change; Dose.FC.LYZ.S [1, 12]: −0.032 log2 fold change; Dose.FC.LYZ.S [1, 13]: −0.304 log2 fold change; Dose.FC.LYZ.S [1, 14]: −0.419 log2 fold change; Z.LYZ.NS [2, 3]: 0.795; Z.LYZ.NS [2, 4]: −0.299; Z.LYZ.NS [2, 5]: −1.908; Z.LYZ.NS [2, 6]: −2.391; Dose.FC.LYZ.NS [2, 7]: 0.091 log2 fold change; Dose.FC.LYZ.NS [2, 8]: −0.034 log2 fold change; Dose.FC.LYZ.NS [2, 9]: −0.219 log2 fold change; Dose.FC.LYZ.NS [2, 10]: −0.275 log2 fold change"
CC(C)(C)c1nc(-c2cccc(NS(=O)(=O)c3c(F)cccc3F)c2F)c(-c2ccnc(N)n2)s1 [Dabrafenib (GSK2118436)],,,,,,,,,−0.134 log2 fold change,0.011 log2 fold change,−0.279 log2 fold change,−0.800 log2 fold change,0.236 log2 fold change,0.103 log2 fold change,0.019 log2 fold change,−0.384 log2 fold change,0.095 log2 fold change,0.049 log2 fold change,−0.001 log2 fold change,−0.250 log2 fold change,"Z.CTG (ENR+CD organoids; [15]): −0.320; Z.CTG (ENR+CD organoids; [16]): 0.026; Z.CTG (ENR+CD organoids; [17]): −0.667; Z.CTG (ENR+CD organoids; [18]): −1.911; Z.LYZ.NS [2, 15]: 0.830; Z.LYZ.NS [2, 16]: 0.427; Z.LYZ.NS [2, 17]: −0.006; Z.LYZ.NS [2, 18]: −2.178"
"Cc1cc(Nc2cc(N3CCN(C)CC3)nc(Sc3ccc(NC(=O)C4CC4)cc3)n2)n[nH]1 [VX-680 (Tozasertib, MK-0457)]",,,,,,,,,−0.150 log2 fold change,−0.596 log2 fold change,−0.706 log2 fold change,−0.959 log2 fold change,−0.078 log2 fold change,−0.245 log2 fold change,−0.308 log2 fold change,−0.342 log2 fold change,−0.043 log2 fold change,−0.151 log2 fold change,−0.166 log2 fold change,−0.238 log2 fold change,"Z.CTG (standard z score) (ENR+CD organoids; primary screen, dose 0.08 uM): −0.359; Z.CTG (standard z score) (ENR+CD organoids; primary screen, dose 0.40 uM): −1.425; Z.CTG (standard z score) (ENR+CD organoids; primary screen, dose 2.00 uM): −1.686; Z.CTG (standard z score) (ENR+CD organoids; primary screen, dose 10.00 uM): −2.291; Z.LYZ.NS (standard z score) ([2]; primary screen, dose 0.08 uM): −0.371; Z.LYZ.NS (standard z score) ([2]; primary screen, dose 0.40 uM): −1.317; Z.LYZ.NS (standard z score) ([2]; primary screen, dose 2.00 uM): −1.450; Z.LYZ.NS (standard z score) ([2]; primary screen, dose 10.00 uM): −2.069"
O=c1[nH]c2ccc(Cl)cc2c(N[C@@H]2CN3CCC2CC3)c1-c1nc2ccccc2[nH]1 [CHIR-124],,,,,,,,,−0.256 log2 fold change,−0.853 log2 fold change,−0.861 log2 fold change,−1.555 log2 fold change,−0.267 log2 fold change,−0.339 log2 fold change,−0.352 log2 fold change,−0.332 log2 fold change,−0.155 log2 fold change,−0.240 log2 fold change,−0.220 log2 fold change,−0.140 log2 fold change,"Z.CTG (ENR+CD organoids; [15]): −0.612; Z.CTG (ENR+CD organoids; [16]): −2.038; Z.CTG (ENR+CD organoids; [17]): −2.057; Z.CTG (ENR+CD organoids; [18]): −3.714; Z.LYZ.NS [2, 15]: −1.352; Z.LYZ.NS [2, 16]: −2.090; Z.LYZ.NS [2, 17]: −1.916; Z.LYZ.NS [2, 18]: −1.223"
